Laboratory results from PubChem BioAssay (NCI).
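How tested: cells in 96-well plates exposed to compound for 48 hours at five concentrations. TGI: total growth inhibition.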

Experiments:
Assay in all cases: inhibition of tumour cell growth, NCI panel, 48 h
[1] = tested on: A549 NSCLC
[2] = tested on: BT-549 breast
[3] = tested on: CAKI-1 renal
[4] = tested on: DU-145 prostate
[5] = tested on: HOP-92 NSCLC
[6] = tested on: MDA-MB-435
[7] = tested on: NCI-H460 lung
[8] = tested on: NCI-H522 lung
[9] = tested on: OVCAR-3 ovarian
[10] = tested on: OVCAR-5 ovarian
[11] = tested on: SK-MEL-2 melanoma
[12] = tested on: SK-MEL-28 melanoma
[13] = tested on: SK-OV-3 ovarian
[14] = tested on: TK-10 renal
[15] = tested on: UO-31 renal

| Compound | TGI [1] [µM] | TGI [2] [µM] | TGI [3] [µM] | TGI [4] [µM] | TGI [5] [µM] | TGI [6] [µM] | TGI [7] [µM] | TGI [8] [µM] | TGI [9] [µM] | TGI [10] [µM] | TGI [11] [µM] | TGI [12] [µM] | TGI [13] [µM] | TGI [14] [µM] | TGI [15] [µM] |
| --- | --- | --- | --- | --- | --- | --- | --- | --- | --- | --- | --- | --- | --- | --- | --- |
| O=CN1CCN(C(=O)c2ccc(Cl)cc2)C1=S | 28 | 69.2 | 27 | 29.1 | 14.9 | 28 | 52 | 31.2 | 28.7 | 35.6 | 36 | 39.6 | 74.6 | 28.2 |  |
| CC1C2CC(CC2O)C1(C)C (centres undefined) | > 100 | > 100 | > 100 | > 100 | > 100 | > 100 | > 100 | > 100 | > 100 | > 100 |  | > 100 | > 100 | > 100 | > 100 |
| Cn1c2c(c3ccccc31)CC(=O)N1CCCC(C1)CC21OCCO1 (centres undefined) | > 100 | > 100 | > 100 | > 100 | > 100 | > 100 | > 100 |  | > 100 | > 100 | > 100 | > 100 | > 100 | > 100 | > 100 |
| Nc1nc(Cl)cc(NCC2(CO)CC(c3ccccc3)C2)n1 (centres undefined) | > 100 | > 100 | > 100 | > 100 | > 100 | > 100 | > 100 | > 100 | > 100 | > 100 | > 100 | > 100 | > 100 | > 100 | > 100 |
| Cc1cc(O)c2c(c1)C(=O)C=C(Br)C2=O | > 60.5 | 30.6 | 27.7 | 17 | 27 | 27.6 | 45.9 | 7.34 | 30.6 | 29.7 | 31.2 | 29.7 | > 100 | 30.1 | 28.9 |
| CC(C)CC(NC=O)C(=O)NC(Cc1ccccc1)NC(=O)CNC(=O)C(C)NC(=O)OC(C)(C)C (centres undefined) | > 100 | > 100 | > 100 | > 100 | > 100 | > 100 | > 100 | > 100 | > 100 | > 100 |  | > 100 | > 100 | > 100 | > 100 |
| O=C1NC(=O)/C(=C/c2ccc(S(=O)(=O)N/N=C/c3ccccc3)cc2)N1 | > 100 | > 100 | > 100 | > 100 | > 100 | > 100 |  |  | > 100 | > 100 | > 100 | > 100 | > 100 | > 100 | > 100 |
| N=C1/C(=C/c2ccccc2)C(=O)N=C2SC=NN12 | > 100 | > 100 | > 100 | > 100 | > 100 | > 100 | > 100 | > 100 | > 100 | > 100 | > 100 | > 100 | > 100 | > 100 | > 100 |
| O=[N+]([O-])c1ccc(OP(=O)(O)OCC2OC(CP(=O)(O)O)C(O)C2O)cc1 (centres undefined) | > 100 | > 100 | > 100 | > 100 | > 100 | > 100 | > 100 | > 100 | > 100 | > 100 | > 100 | > 100 |  | > 100 | > 100 |
| O=C(O)c1cccc(S(=O)(=O)NN2C(=O)CSC2c2ccccc2Cl)c1 (centres undefined) | > 100 | > 100 | > 100 | > 100 | > 100 | > 100 | > 100 | > 100 | > 100 | > 100 | > 100 | > 100 | > 100 | > 100 | > 100 |
| C=CCN1C(=O)/C(=C/c2ccccc2)N=C1SC1OC(COC(C)=O)C(OC(C)=O)C(OC(C)=O)C1OC(C)=O (centres undefined) | > 100 | 65.5 | 53.8 | 71.6 | 76.6 | > 100 | > 100 | 55.4 | 45.8 | > 100 | 48.8 | 76.6 | > 100 | > 100 |  |
| S=C1NCCN1C(=S)NC1CCCCC1 | 99.1 | 60.9 | 74.5 | > 100 | 66.2 | 67.6 | 48 | 69 | > 100 | > 100 | 96 | > 100 | > 100 | 93.1 | 81.6 |
| COc1ccc(C(=O)/C=C/c2ccc(OCC#N)cc2)cc1OC | > 100 | 30 | 37.5 | 23.8 | 44.3 | 44.7 | > 100 | 32.5 | 49.1 |  |  | 29.5 | > 100 | 70 | 32.6 |
| CCCC1=NC(C(F)(F)F)(C(F)(F)F)N=C(N2CCOCC2)O1 | > 100 | > 100 | > 100 | > 100 | > 100 | > 100 |  |  | > 100 | > 100 | > 100 | > 100 | > 100 | > 100 | > 100 |
| COC(=O)c1ccc(-n2c(C)nc(=O)c(-c3ccccc3)c2C)cc1 | > 100 | > 100 | > 100 | > 100 | > 100 | > 100 | > 100 | > 100 | > 100 | > 100 | > 100 | > 100 | > 100 | > 100 | > 100 |
| CC(C)CNC(=O)c1c(NC(=O)c2ccccc2)sc2[nH]c(=O)n(-c3ccccc3)c(=O)c12 | > 100 | 77.4 | > 80.9 | > 100 | 19.7 | > 100 | > 100 | > 100 | > 100 | > 100 | 68.6 | > 100 | > 81.2 | 75 | > 100 |

| Compound | TGI [1] [µM] | TGI [2] [µM] | TGI [3] [µM] | TGI [4] [µM] | TGI [5] [µM] | TGI [6] [µM] | TGI [7] [µM] | TGI [8] [µM] | TGI [9] [µM] | TGI [10] [µM] | TGI [11] [µM] | TGI [12] [µM] | TGI [13] [µM] | TGI [14] [µM] | TGI [15] [µM] |
| --- | --- | --- | --- | --- | --- | --- | --- | --- | --- | --- | --- | --- | --- | --- | --- |
| N#Cc1c(N)nc2c(N=Nc3ccccc3)c(N)nn2c1Nc1ccccc1 | 46.9 | 50.6 | 29.2 | 39.8 | 31.6 | 39.6 | 44.3 | 39.9 | 35.1 | 57.7 | 48.2 | 24.2 |  | 52.6 |  |
| CCNC(=S)Nc1c(C#N)c2n(c1C(=O)OCC)CCCCC2 |  | > 100 | > 100 | > 100 | > 100 | > 100 | > 100 |  |  |  | > 100 | > 100 | > 100 | > 100 | > 100 |
| CC(=O)N1N=C(c2ccccc2Nc2ccccc2C2=NN(C(C)=O)C(c3ccccc3)O2)OC1c1ccccc1 (centres undefined) | > 100 | > 100 |  | > 100 | > 100 | > 100 | > 100 | > 100 | > 100 | > 100 | > 100 | > 100 | > 100 | > 100 | > 100 |
| CSc1ncc2c(C#N)c3ccccn3c(=O)c2n1 | > 100 | > 100 | > 100 | > 100 | > 100 | > 100 | > 100 |  | > 100 | > 100 | > 100 | > 100 | > 100 | > 100 | > 100 |
| CCSC1=C(C#N)C2(CCCCC2)C2=C(CC(C)(C)CC2=O)N1 | > 100 | 60.1 | > 100 | 60.8 | 43.1 | > 100 | 21.2 | > 100 |  | > 100 | > 100 | > 100 |  | > 100 | 39.8 |
| C=CCC1(O)C(=O)OC2C(O)COC21O (centres undefined) | > 100 | > 100 | > 100 | > 100 | > 100 | > 100 | > 100 | > 100 | > 100 | > 100 | > 100 | > 100 | > 100 | > 100 | > 100 |
| c1ccc(CNCCCNCCCCNCCCNCc2ccccc2)cc1 | 45.5 | 33.3 | 23 | 25.4 | 3.57 | 8.91 | 19.1 | 3.37 | 28.3 | 16.2 | 31.4 | 26.7 | 31 | 18 | 25.7 |
| CC(C)(C)OC(=O)N(CCCCNC(=O)c1ccccc1)CCCNC(=O)c1ccccc1 | > 100 | > 100 | > 100 | > 100 | > 100 | > 100 | > 100 | > 100 | > 100 | > 100 | > 100 | > 100 | > 100 | > 100 | > 100 |
| Cc1cc(CN(Cc2ccccc2)Cc2nc3ccccc3[nH]2)c(O)c(CN(Cc2nc3ccccc3[nH]2)Cc2nc3ccccc3[nH]2)c1 | > 95.1 | 18.3 | > 100 | > 100 | 14.7 | 36.1 | 28 | > 69.5 | 63.5 | > 100 | 36.1 | > 100 | > 52.3 | > 67.9 | 36.7 |
| COC(=O)C(=O)c1cc2ccccc2n1S(=O)(=O)c1ccccc1 | > 100 | > 100 | > 100 | > 100 | > 100 | > 100 | > 100 | > 100 | > 100 | > 100 | > 100 | > 100 | > 100 | > 100 | > 100 |
| O=S(=O)(c1ccccc1)[C@@H]1[C@H]2C=C[C@](CS)(O2)[C@H]1S(=O)(=O)c1ccccc1 | > 100 | > 100 | 92.3 | > 100 | > 100 | > 100 | > 100 | 31.7 | 63.5 | > 100 |  | > 100 | > 100 | > 100 | > 100 |
| Cc1ccc(O)c(-c2cc(-c3ccccc3)nc(/N=C\c3ccccc3)n2)c1 | > 100 | 19.2 |  | > 100 | > 100 | > 100 | > 100 | > 100 | > 100 | > 100 | > 100 | > 100 |  | > 100 | 13.5 |
| COc1ccc(/C=N/NS(=O)(=O)c2ccc(/C=C3\NC(=O)N(C)C3=O)cc2)cc1 | > 100 | > 100 | > 100 | > 100 | > 100 | > 100 | > 100 |  | > 100 | > 100 | > 100 | > 100 | > 100 | > 100 | > 100 |
| N=c1oc2ccc([N+](=O)[O-])cc2cc1C(=O)Nc1ccccn1 | > 100 | > 100 | > 100 | > 100 | > 100 | > 100 | > 100 | 86.2 | 65.8 | > 100 | 43.4 | > 100 | > 100 |  |  |
| c1csc(-c2cscc2-c2cccs2)c1 | > 100 | > 100 | > 100 | 8.22 | > 100 | > 100 | > 100 |  | 47.3 | > 100 |  | > 100 | > 100 | > 100 | > 100 |
| CN1C(=O)CN=C(c2ccccc2F)c2cc(N=C=S)ccc21 | > 100 | > 100 | 25.2 | > 100 | > 100 | > 100 | > 100 | 45.2 | > 100 | > 100 | > 100 |  | > 100 | > 100 | > 100 |
